Experimental data: US20060135798A1, “2-Methylene-19-nor-(20S)-1alpha-hydroxy-trishomopregnacalciferol” (Wisconsin Alumni Research Foundation, priority 2004, published 2006)

Legend:
[1] = Intestinal calcium transport (everted gut sac method); format: in vivo, rat; details: rats, ip; FIG. 5
Method: (§1) Male, weanling Sprague-Dawley rats were placed on Diet 11 (0.47% Ca) diet +AEK for one week followed by Diet 11 (0.02% Ca) +AEK for 3 weeks. The rats were then switched to a diet containing 0.47% Ca for one week followed by two weeks on a diet containing 0.02% Ca. Dose administration began during the last week on 0.02% calcium diet. Four consecutive ip doses were given approximately 24 hours apart. Twenty-four hours after the last dose, blood was collected from the severed neck and the concentration of serum calcium determined as a measure of bone calcium mobilization. The first 10 cm of the intestine was also collected for intestinal calcium transport analysis using the everted gut sac method.

[2] = biological target: T1, full-length recombinant rat vitamin D receptor (Rattus norvegicus, UniProt P13053); assay: Vitamin D receptor binding, competition with [3H]-1,25-(OH)2-D3; details: compared with 1,25(OH)2D3; FIG. 1
T1 construct: Full-length recombinant rat receptor was expressed in E. coli BL21(DE3) Codon Plus RIL cells; histidine tag (C); made in house; host or cells: E. coli BL21(DE3) Codon Plus RIL
T1 sequence (P13053 1-423): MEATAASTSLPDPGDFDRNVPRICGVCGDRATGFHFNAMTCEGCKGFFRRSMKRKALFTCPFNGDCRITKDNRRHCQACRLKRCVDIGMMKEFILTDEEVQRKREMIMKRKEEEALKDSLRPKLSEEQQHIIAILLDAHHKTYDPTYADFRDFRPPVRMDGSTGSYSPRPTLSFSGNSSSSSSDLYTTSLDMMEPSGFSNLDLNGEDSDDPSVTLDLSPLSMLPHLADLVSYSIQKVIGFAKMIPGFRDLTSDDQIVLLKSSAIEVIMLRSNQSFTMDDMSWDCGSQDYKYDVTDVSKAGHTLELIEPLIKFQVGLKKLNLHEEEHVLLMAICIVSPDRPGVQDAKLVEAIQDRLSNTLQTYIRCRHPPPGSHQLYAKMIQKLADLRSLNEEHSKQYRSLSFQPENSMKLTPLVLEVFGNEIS
Method: Full-length recombinant rat receptor was expressed in E. coli BL21(DE3) Codon Plus RIL cells and purified to homogeneity using two different column chromatography systems. The first system was a nickel affinity resin that utilizes the C-terminal histidine tag on this protein. The protein that was eluted from this resin was further purified using ion exchange chromatography (S-Sepharose Fast Flow). Aliquots of the purified protein were quick frozen in liquid nitrogen and stored at −80° C. until use. For use in binding assays, the protein was diluted in TEDK50 (50 mM Tris, 1.5 mM EDTA, pH 7.4, 5 mM DTT, 150 mM KCl) with 0.1% Chaps detergent. The receptor protein and ligand concentration was optimized such that no more than 20% of the added radiolabeled ligand was bound to the receptor.
Unlabeled ligands were dissolved in ethanol and the concentrations determined using UV spectrophotometry (1,25(OH)2D3: molar extinction coefficient=18,200 and λmax=265 nm; Analogs: molar extinction coefficient=42,000 and λmax=252 nm). Radiolabeled ligand (^3H-1,25(OH)2D3, ˜159 Ci/mmole) was added in ethanol at a final concentration of 1 nM.
Radiolabeled and unlabeled ligands were added to 100 mcl of the diluted protein at a final ethanol concentration of ≦10%, mixed and incubated overnight on ice to reach binding equilibrium. […] Total binding was determined from the tubes containing only radiolabeled ligand.

[3] = Bone calcium mobilization (serum calcium on low calcium diet); format: in vivo, rat; details: rats, ip, even at 2340 pmol/day; FIG. 4
Method: as §1

[4] = test system: parathyroid hormone (PTH); assay: PTH suppression in adult rats; format: in vivo, rat; details: ip, 7 consecutive days
Method: (§2) Adult, female Sprague-Dawley rats were obtained from Harlan (Madison, Wis.).
(§3) Upon receipt, the animals were identified by individual tail marks. Animals were housed in suspended, stainless steel, wire-bottom cages. Each cage contained one animal. The animal rooms were maintained at a temperature of 68 to 72° F. and a relative humidity of 25 to 75%. The holding rooms were set to provide 12 hours of light per day. Water and a purified rodent diet (Suda et al., Purified Rodent Diet-Diet 11) containing […] 0.3% phosphorus and fat soluble vitamins A, D, E and K were provided ad libitum.
(§4) Animals were randomly assigned to treatment groups (5 animals/group). All doses were administered intraperitoneally in 100 microliters of propylene glycol. Four to seven consecutive doses were given approximately 24 hours apart. Dosing was initiated after the animals had been allowed to acclimate for at least one week.
Both control and test articles were administered by intraperitoneal injection in 100 microliters for 4-7 consecutive days spaced approximately 24 hours apart. 1,25(OH)2D3 was given for 4 consecutive days, whereas, the test drugs were given for 7 consecutive days.
Twenty-four hours after the final dose, blood was collected from the tail artery and the concentration of bioactive serum PTH was measured using the rat BioActive Intact PTH ELISA Kit from Immutopics, Inc. (San Clemente, Calif.).

[5] = Hypercalcemia: serum calcium in adult rats; format: in vivo, rat; details: ip, 7 consecutive days
Method: as §2, §3, §4
Both control and test articles were administered by intraperitoneal injection in 100 microliters for 4-7 consecutive days spaced approximately 24 hours apart. […]
Twenty-four hours after the final dose, approximately 1 ml of blood was collected from the tail artery of each experimental animal. […] The level of calcium was determined by diluting the serum into 0.1% lanthum chloride and measuring the absorbance on an atomic absorption spectrophotometer (Perkin Elmer Model 3110, Shelton, Conn.).

HL-60 cells = assay: HL-60 differentiation (nitro blue tetrazolium reduction); format: cell-based, human; details: compared with 1,25-(OH)2D3; FIG. 2
Method: The study drugs were dissolved in ethanol and the concentrations determined using UV spectrophotometry. Serial dilutions were prepared so that a range of drug concentrations could be tested without changing the final concentration of ethanol (≦0.2%) present in the cell cultures.
Human promyelocytic leukemia (HL60) cells were grown in RPMI-1640 medium containing 10% fetal bovine serum. The cells were incubated at 37° C. in the presence of 5% CO2.
HL60 cells were plated at 1.2×10^5 cells/ml. Eighteen hours after plating, cells in duplicate were treated with drug. Four days later, the cells were harvested and a nitro blue tetrazolium reduction assay was performed (Collins et al., 1979; J. Exp. Med. 149:969-974). The percentage of differentiated cells was determined by counting a total of 200 cells and recording the number that contained intracellular black-blue formazan deposits. Verification of differentiation to monocytic cells was determined by measuring phagocytic activity (data not shown).

[6] = test system: 24-hydroxylase (24Ohase) gene promoter; assay: In vitro transcription assay (24-hydroxylase promoter luciferase reporter in ROS 17/2.8 cells); format: cell-based; details: compared with 1,25-(OH)2D3; FIG. 3
Method: Transcription activity was measured in ROS 17/2.8 (bone) cells that were stably transfected with a 24-hydroxylase (24Ohase) gene promoter upstream of a luciferase reporter gene (Arbour et al., 1998). Cells were given a range of doses. Sixteen hours after dosing the cells were harvested and luciferase activities were measured using a luminometer. RLU=relative luciferase units.

With `C=C1[C@H](O)CC(=C/C=C2\CCC[C@]3(C)C([C@@H](C)CCC)CC[C@@H]23)C[C@H]1O` (stereo in doubt) [2-Methylene-19-nor-(20S)-1α-hydroxy-trishomopregnacalciferol] the intestinal calcium transport [1] was “retain some ability to elevate intestinal calcium transport”, the “binding to the vitamin D receptor relative to the native hormone” value [2] was “almost equal to the native hormone” and the “bone calcium mobilizing activity” value [3] was “little bone calcium mobilizing activity”. For the same molecule, the “suppression of parathyroid hormone” value [4] was “remarkably effective in suppressing parathyroid hormone”, the serum calcium concentrations [5] was “not raising serum calcium concentrations” and the “activity in inducing differentiation of HL-60 cells” value (HL-60 cells) was “equal in activity to 1,25-(OH)2D3”. For the same molecule, the transcription activity [6] was “within one order of magnitude of the activity of 1,25-(OH)2D3”.
